{"source": "patent US10780061B2", "about": "“Composition comprising farnesol and use thereof” (Daegu Gyongbuk Institute of Science and Technology, priority 2014, dated 2020)", "key": {"[1]": {"assay": "GA muscle mass, lean mass and heart mass of mice according to farnesol administration", "assay_type": "in vivo, mouse", "description": "22-month-old female mice (weighing 30 g) are fed with a control diet and a farnesol diet for 4 months. That is, 22-month-old mice are fed for 4 months, and then 26-month-old mice are analyzed."}, "PGC-1α": {"test_system": "PGC-1α", "assay": "Immunoblotting of tibialis anterior muscles of mice administered with farnesol", "assay_type": "in vivo, mouse", "settings": "5 month-old mice, feed with 0.5% w/w farnesol, 5 weeks", "description": "5 month-old C57BL/6 male mice (weighing 22 g) are maintained at a temperature of 22±2° C., humidity of 55±5%, and a light-dark cycle of 12:12 hours. An animal feed containing 0.5% w/w farnesol was supplied by Jung-Ang Lab Animal Inc. A control group is fed with a feed equivalent to a general feed for experimental animals, excluding that no 0.5% w/w farnesol is contained. They are allowed free access to drinking water. Skeletal muscles were separated from the mice and control mouse fed with farnesol for 5 weeks, and subjected to immunoblot analysis. In all the following Examples, administration or feeding of mouse is performed as above, unless otherwise mentioned. […] In this specification, assuming that human life expectancy of 100 years corresponds to mouse life expectancy of 3 years, human life expectancy is estimated from the relationship."}, "human PARIS (WT, C631S) [2]": {"molecular_target": "T1, human PARIS (WT, C631S) (Homo sapiens, UniProt Q6NUN9, C631S)", "T1 construct": "Human full length PARIS cDNA (IMAGE: 30347892); expressed in transfected cells; host or cells: C2C12 myoblasts, pCMV-Tag2A (Stratagene)", "T1 sequence (Q6NUN9 whole entry C631S)": "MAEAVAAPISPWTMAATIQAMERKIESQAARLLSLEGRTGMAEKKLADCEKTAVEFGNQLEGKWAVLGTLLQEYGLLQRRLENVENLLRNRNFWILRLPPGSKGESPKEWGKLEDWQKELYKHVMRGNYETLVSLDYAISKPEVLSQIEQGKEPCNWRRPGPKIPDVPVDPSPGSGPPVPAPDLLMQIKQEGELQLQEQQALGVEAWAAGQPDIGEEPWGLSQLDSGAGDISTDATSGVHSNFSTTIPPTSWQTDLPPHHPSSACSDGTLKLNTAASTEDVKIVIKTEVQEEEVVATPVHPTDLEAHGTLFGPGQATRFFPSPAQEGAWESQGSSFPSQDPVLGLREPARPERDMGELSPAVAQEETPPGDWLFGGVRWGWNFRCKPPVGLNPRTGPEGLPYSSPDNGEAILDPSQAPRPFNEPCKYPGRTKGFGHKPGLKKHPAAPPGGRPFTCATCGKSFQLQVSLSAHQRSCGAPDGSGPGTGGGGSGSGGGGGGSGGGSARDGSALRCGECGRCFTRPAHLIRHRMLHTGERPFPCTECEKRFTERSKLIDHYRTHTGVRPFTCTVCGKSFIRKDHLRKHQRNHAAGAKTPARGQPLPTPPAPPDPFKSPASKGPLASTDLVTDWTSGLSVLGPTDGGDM", "assay": "Immunoprecipitation of PARIS WT and PARIS C631S mutant in C2C12 myoblasts", "assay_type": "cell-based", "settings": "C2C12 with FLAG-PARIS C631S, 0.1 uM farnesol, 24 hours", "description": "(§1) To examine whether cysteine residues of CGLS sequence (631-634) of an amino acid sequence (SEQ ID NO: 11) of human PARIS are farnesylation sites, a FLAG-PARIS wild-type (WT) gene or a FLAG-PARIS C631S mutant (hereinafter, referred to as “MT”) gene is introduced into C2C12 myoblasts in the presence of DMSO or 0.1 uM farnesol, and the gene is expressed in C2C12 myoblasts by culturing them in DMEM containing 10% FBS for 24 hours. Immunoprecipitation and promoter activity analysis of a cell lysate are performed. The site of amino acid sequence (SEQ ID NO: 10) of mouse PARIS corresponding to CGLS sequence (631-634) of the amino acid sequence (SEQ ID NO: 11) of human PARIS is residues at positions 638-641. This CGLS sequence is conserved in mammals as well as humans and mice, and thus C of CGLS which is located at the C-terminus is a farnesylation site regardless of the length of the sequence.\n(§2) Human full length PARIS cDNA (IMAGE: 30347892; Open Biosystems) (SEQ ID NO: 9) is cloned into BamH1 and EcoR1 restriction sites of a mammalian gene expression vector, pCMV-Tag2A (Stratagene). The pCMV-Tag2A vector is a plasmid-derived mammalian expression vector for tagging proteins with an N-terminal FLAG epitope. A QuikChange site-directed mutagenesis kit (Stratagene) is used to prepare pCMV-PARIS C631S, in which a PARIS C631S gene mutant obtained by substituting serine for the cysteine residue at position 631 of human PARIS is cloned into BamHI and EcoRI restriction sites of pCMV-Tag2A (Stratagene). After preparation of the mutant gene, the gene is introduced into pCMV to prepare an overexpression vector. To prepare the PARIS C631S gene, a pair of primers (SEQ ID NOS: 12 and 13) is used. Thereafter, a nucleotide sequence of the PARIS C631S gene thus prepared is confirmed by automated DNA sequencing.\n(§3) In the case of PARIS C631S mutant, no farnesylation occurs. […] In FIG. 5C, − represents C2C12 myoblasts introduced with no PARIS gene, and WT and MT represent C2C12 myoblasts introduced with the wild-type PARIS gene and the mutant PARIS gene, that is, PARIS C631S gene, respectively. […]"}, "human PARIS (WT, C631S) [3]": {"molecular_target": "T2, human PARIS (WT, C631S) (Homo sapiens, UniProt Q6NUN9)", "T2 construct": "Human full length PARIS cDNA (IMAGE: 30347892); expressed in transfected cells; host or cells: C2C12 myoblasts, pCMV-Tag2A (Stratagene)", "T2 sequence (Q6NUN9 whole entry C631S)": "as above", "assay": "Immunoprecipitation of PARIS WT and PARIS C631S mutant in C2C12 myoblasts", "assay_type": "cell-based", "settings": "C2C12 with FLAG-PARIS WT, 0.1 uM farnesol, 24 hours", "description": "as §1, §2, §3"}, "[4]": {"test_system": "PARIS-overexpressing muscles", "assay": "SDH staining of PARIS-overexpressing tibialis anterior muscles", "assay_type": "in vivo, mouse", "settings": "22-month-old mice, PARIS-GFP adenovirus in tibialis anterior muscle, 4 days", "description": "Control-GFP adenovirus and PARIS-GFP adenovirus are injected into the tibialis anterior muscles of 22-month-old mice (female, body weight of 30 g), respectively. The old mice are fed with a predetermined diet, and 4 days later, muscles are collected and subjected to histological staining and qRT-PCR. For PARIS overexpression, human full-length PARIS cDNA (IMAGE: 30347892; Open Biosystems) (SEQ ID NO:9) is introduced into BamH1 and EcoR1 restriction sites of a viral vector, AAV/CBA-WPRE-bGHpA (containing chicken beta-actin (CBA) promoter and woodchuck hepatitis virus post-transcriptional-regulatory element (WPRE), and bovine growth hormone polyadenylation signal sequence) to prepare a full-length PARIS cDNA-containing AAV/CBA-WPRE-bGHpA vector, and this vector is introduced into the adenovirus-introduced cells. A high titer adenovirus […] is a viral vector manufactured by Viral Vector Core Facility (University of Iowa Carver College). Virus transduction efficiency is evaluated by GFP fluorescence. To evaluate PARIS overexpression and administration effect of farnesol, frozen sections of tibialis anterior muscles are stained for SDH enzyme activity.\nFurther, similar to the result in C2C12 myoblast models, an oxidative metabolism reduced by PARIS overexpression is also recovered by farnesol treatment in animal models. […]"}, "human PGC-1α promoter": {"test_system": "human PGC-1α promoter", "assay": "Screening of compounds using PGC-1α reporter (luciferase) C2C12 cell line", "assay_type": "cell-based, mouse", "settings": "10 μM, 48 hours, luciferase luminescence", "procedure": "To screen for a compound activating PGC-1α gene expression in C2C12 myoblast, a PGC-1α reporter-expressing C2C12 cell line (hereinafter, referred to as ‘PGC-1α reporter cell line’ or ‘C2C12-PGC-1α cell line) is established. A vector expressing luciferase and dscGFP (destabilized Green Fluorescent Protein) under human PGC-1α promoter having a length of 1 kb is prepared, and this vector is inserted into lentivirus to transfect C2C12 cells. To select a cell line that genetically and stably expresses this vector, fluorescence emitted from green fluorescent protein (GFP) included in the vector is monitored. […] The expression level is measured by luminescence after addition of a luciferase substrate, thereby determining activation or inhibition of PGC-1α transcription by the compound.\nThe C2C12-PGC-1α reporter cell line prepared in Section 1 is used to screen a PGC-1α expression regulator from 2320 compounds provided by Korea chemical bank. […] 48 hours later, luminescence by luciferase is measured. in detail, cells are lysed in 10 μl of passive lysis buffer (50 mM Tris-HCl, 7.5 mM MgCl2, 750 mM NaCl, 5 mM EGTA, 1% Triton-x 100, 1 mM Na3VO4, 10 mM NaF, 0.1 mM PMSF (phenylmethanesulfonylfluoride), PI (protease inhibitor)) as a cell lysis buffer, and 50 μl of a luciferase substrate, luciferin was added thereto to allow enzymatic reaction. Then, luminescence is measured. […]"}, "[5]": {"settings": "old animal, farnesol diet 4 months"}}}
{"smiles": "CC(C)=CCC/C(C)=C/CC/C(C)=C/CO", "note": "[farnesol, (2E,6E)-3,7,11-trimethyldodeca-2,6,10-trien-1-ol]", "values": [{"measurement": "GA muscle mass", "setting": "[1]; [5]", "value": 0.099, "unit": "g"}, {"measurement": "heart mass (versus control old animal)", "setting": "[1]; [5]", "value": 0.156, "unit": "g"}, {"measurement": "lean mass", "setting": "[1]; [5]", "value": 15.3, "unit": "g"}, {"measurement": "side effects such as muscular hypertrophy", "setting": "[1]; old animals, farnesol diet 4 months", "value": "does not cause side effects such as muscular hypertrophy"}, {"measurement": "heart mass (versus control young animal)", "setting": "[1]; printed as farnesol old animal, compared with control young animal", "value": 0.115, "unit": "g"}, {"measurement": "expression of PGC-1α in tibialis anterior muscle", "setting": "PGC-1α", "value": "increased"}, {"measurement": "expression of cytochrome C in tibialis anterior muscle", "setting": "PGC-1α", "value": "increased"}, {"measurement": "PGC-1α level, PARIS C631S mutant", "setting": "human PARIS (WT, C631S) [2]", "value": "does not affect"}, {"measurement": "PGC-1α level, PARIS WT", "setting": "human PARIS (WT, C631S) [3]", "value": "PGC-1α increase"}, {"measurement": "farnesylation of PARIS WT", "setting": "human PARIS (WT, C631S) [3]", "value": "increased"}, {"measurement": "oxidative metabolism (SDH staining) reduced by PARIS overexpression", "setting": "[4]", "value": "recovered"}, {"measurement": "PGC-1α promoter activity relative to control group DMSO", "setting": "human PGC-1α promoter", "value": "greatly increasing"}]}
